The values below come from patent publication EP4616854A1, “TREATMENT OF MUSCLE SARCOPENIA” (Molius Saglik Teknolojileri Anonim Sirketi, priority 2024, dated 2025).

Entries after “also recorded” stand apart in the source; their conditions may differ. Read-outs that look alike come from different tables or passages of the source.

The test system of one series is C2C12 myoblasts. In words: Differentiation of C2C12 myoblasts to myotubes under drug treatment, without ceramide. The class given is cell-based, mouse. Particulars: for ability to facilitate myotube differentiation without the presence of ceramide: C2C12 cells not treated with C2-ceramide, Fig. 15. On the procedure:
The C2C12 cells (C2C12 mouse C3H muscle myoblast purchased from Sigma) were maintained in modified Eagle's medium (DMEM) with 10 % fetal bovine serum (FBS) and 1 % penicillin/streptomycin (P/S) solution in a humidified incubator with 5 % CO2 at 37 °C. […] […] Then, the medium was changed twice, at two-day intervals, with a differentiation medium (DMEM with 2% FBS and 1% P/S) with drug candidates to differentiate myoblasts into myotubes. […] Cell viability was measured spectrophotometrically by Cell Counting kit-8. The expression level of target proteins (ANXA2, CLMP, Cyc1, and SDHB), myogenic markers (MyoG and MyH3) and α-Tubulin (internal control) were detected using Western blots. All experiments were performed with 3 replicates.

For series [1], the system named is C2-ceramide treated C2C12 cell line. In words: In vitro sarcopenia model (Example 1): myotube phenotype and MyH3 immunofluorescence. The class given is cell-based, mouse. The following applies: for MyH3 intensity compared to the control group: mean brightness of MyH3 staining, Fig. 5B. On the procedure:
(§1) The C2C12 cells (C2C12 mouse C3H muscle myoblast purchased from Sigma) were maintained in modified Eagle's medium (DMEM) with 10 % fetal bovine serum (FBS) and 1 % penicillin/streptomycin (P/S) solution in a humidified incubator with 5 % CO2 at 37 °C. 40 µM C2-ceramide was used for developing an in vitro model of sarcopenia in the C2C12 cell line, i.e., in vitro sarcopenia model. One day after 300×10^3 cells were seeded per well in a 6-well plate, N-acetyl-D-sphingosine (C2-ceramide) and the drug candidates (dissolved in DMSO) were administered in the maintenance condition (DMEM with 10 % FBS and 1 % P/S) for two days. Then, the medium was changed twice, at two-day intervals, with a differentiation medium (DMEM with 2% FBS and 1% P/S) with drug candidates to differentiate myoblasts into myotubes. Furthermore, siRNAs for Anxa2 and Clmp and overexpression plasmids for Cyc1 and Sdhb were transfected into the cells to examine the effect of the target proteins on the in vitro sarcopenia model. Cell viability was measured spectrophotometrically by Cell Counting kit-8. The expression level of target proteins (ANXA2, CLMP, Cyc1, and SDHB), myogenic markers (MyoG and MyH3) and α-Tubulin (internal control) were detected using Western blots. All experiments were performed with 3 replicates.
The cells were, once again, washed 3 times in PBS and then permeabilized in 0.1 % TritonX-100 for 15 min at room temperature. The cells were then incubated for 1 h in 2 % bovine serum albumin (BSA) solution followed by overnight incubation in anti-Myosin/MyH3 diluted in 0.1 % BSA at 4 °C. Primary antibody solution was washed away with PBS, then incubated in fluorescent dye-labelled secondary antibody diluted in 0.1 % BSA for 45 min at room temperature protected from light. Finally, the samples were washed 3 times with 1xPBS-T and mounted with DAPI mount putted cover glass on the cells.
The cell brightness was measured by ImageJ software (NIH). For each experiment condition, three different areas were photographed with same area size (5038848 by ImageJ), the mean brightness of each image was obtained for statistical analysis. The t test was used to check the statistical differences between any two experiment conditions.

A short description of series [2]: Cell viability assay (MTT). The following applies: mouse, c2c12 cells. On the procedure:
The effects of the drugs on the C2C12 cell viability were tested by MTT (Thiazolyl Blue Tetrazolium Bromide) assay. 1×10^4 cells were seeded per well in a 96-well plate in 100 µL growth media. After one day of cell seeding, the cells were treated with different concentrations of the drugs dissolved in 0.1 % DMSO and 100 µL of the media for one day. After the treatment period, 5 mg/ml MTT (M2128, Sigma-Aldrich) solution in PBS (10 µL) was added to each well. After one hour, the MTT solution and all media were removed from the wells. 100 µl of DMSO was added and mixed to dissolve the formazan crystals. Cell viability was analysed by measuring the absorbance of the dissolved formazan at a wavelength of 570 nm with a microplate reader (Hidex Sense Beta Plus).

Series [3] has as its system C2-ceramide treated C2C12 cell line. In words: In vitro sarcopenia model (Example 1): Western blot of target proteins and myogenic markers. It counts as cell-based, mouse. On the procedure: as §1
The cells were washed with PBS and lysed with CelLytic M (C2978, Sigma-Aldrich) lysis buffer containing protease inhibitors. The cell lysates were centrifuged at 12 000 rpm for 5 min and supernatants were collected. A protein assay solution (Bio-Rad) was used for the determination of protein concentration. The absorbance of the proteins was measured spectrophotometrically at 595 nm by microplate reader (Hidex Sense Beta Plus). Protein electrophoresis was performed using Mini-PROTEAN® TGXTM Precast Gels (Bio-Rad) and the separated proteins were transferred to a Trans-Blot Turbo Mini 0.2 um PVDF Transfer Packs membrane (Bio-Rad) by using Trans-Blot® TurboTM Transfer System (Bio-Rad). The membrane was blocked with 5 % skim milk for 30 min at 4 °C with gentle rocking. It was immunoblotted with primary antibodies against MyH3, MyoG, ANXA2, CLMP, Cyc1, and SDHB, as well as α-Tubulin, as an internal control, overnight at 4 °C with gentle rocking. Goat anti-Rabbit HRP or goat anti-mouse IgG-HRP was used as secondary antibody. Reaction with secondary antibody proceeded for 30 min at 4 °C with gentle rocking.
On the technique in general: A western blot detects proteins with antibodies after separation by electrophoresis.

Where [4] appears, read: selected non-toxic concentration of drug candidate, Fig. 11.
[5] abbreviates: 40 µM ceramide plus drug candidate at selected concentration.
Where [6] appears, read: drug plus ceramide (sarcopenic cells), concentration not given.
Where [7] appears, read: 40 µM ceramide alone versus control, 4 days of differentiation.
[8] abbreviates: 2.5 µM, in vitro sarcopenia model.
Setting [9] is: 5 µM, in vitro sarcopenia model.
The mark [10] stands for this setting: 20 µM, in vitro sarcopenia model.

For `OCCCNc1cc(-c2ccnc(Nc3cccc(Cl)c3)n2)ccn1` [CGP-60474], the “differentiation of myoblasts to myotubes” value with C2C12 myoblasts (setting [4]) is “highly differentiated”. For the same molecule, the “effect on myotubes (phenotypic change)” value in series [1] (setting [5]) was “Only treatment with withaferin-A improved the myotubes”.

For `CC(C)(Oc1ccc(Cl)cc1)C(=O)O` [clofibric-acid, clofibric acid], in series [2], the MNTC at 24 h was found to be 5000 nM.

As for `CC1=C(CO)C(=O)OC(C(C)C2CCC3C4CC5OC56C(O)C=CC(=O)C6(C)C4CCC23C)C1` (centres unmarked) [Withaferin-A, withaferin-A], the “differentiation of myoblasts to myotubes” value in the series with C2C12 myoblasts (setting [4]) is on record as “highly differentiated”. In series [2], the MNTC at 24 h is 50 nM. Also, the “effect on myotubes (phenotypic change)” value in series [1] (setting [5]) is on record as “improved the myotubes similarly to the control sample”. Further, the “MyH3 intensity compared to the control group” value in series [1] was “no statistical difference”. In series [3] (setting [6]), the “expression level of CYC1” value is reported as “activating effect”, the “expression level of MyH3” value is “increase; also recorded: expressed as much as control samples” and the “expression level of MyoG” value is on record as “increase”. The “expression level of ANXA2” value in series [3] (drug plus ceramide, concentration not given) is listed as “inhibitory effect; also recorded: decreased”.

In the case of `CCCCCCCCCCCCC/C=C/[C@@H](O)[C@H](CO)NC(C)=O` [ceramide, N-acetyl-D-sphingosine], in series [1] (40 µM ceramide alone, after 4 days of differentiation), the myotube formation entry is on record as “less myotubes were formed”. In addition, the “MyH3 intensity compared to the control group” value in series [1] is listed as “significantly deceased; also recorded: significantly decreased”. Further, in series [3] (setting [7]), the “expression level of MyH3” value is listed as “decreased” and the “expression level of MyoG” value is on record as “decreased”. Besides, the “expression level of ANXA2” value in series [3] (ceramide alone versus control) was “increased”.

With `COC[C@H]1OC(=O)c2coc3c2[C@@]1(C)C1=C(C3=O)[C@@H]2CCC(=O)[C@@]2(C)C[C@H]1OC(C)=O` [Wortmannin], in the series with C2C12 myoblasts, the “differentiation of myoblasts to myotubes” value was “moderately differentiated”. In series [1], the “effect on myotubes (phenotypic change)” value is given as “Only treatment with withaferin-A improved the myotubes”.

`CC(=O)c1c(C)c2cnc(Nc3ccc(N4CCNCC4)cn3)nc2n(C2CCCC2)c1=O` [palbociclib] yielded an MNTC at 24 h in series [2] of 5000 nM.

In the case of `Cc1ccc([N+](=O)[O-])cc1S(=O)(=O)N(C)/N=C/c1cnc2ccc(Br)cn12` [PIK-75], the “differentiation of myoblasts to myotubes” value in the series on C2C12 myoblasts (setting [4]) is “highly differentiated”. The “effect on myotubes (phenotypic change)” value in series [1] (setting [5]) is “Only treatment with withaferin-A improved the myotubes”.

Consider `Cc1ccc(CNc2ncnc3ccc(-c4ccc(CO)o4)cc23)o1` [ML-167], for which, in the series with C2C12 myoblasts, the “ability to facilitate myotube differentiation without the presence of ceramide” value is on record as “exhibited the ability to facilitate myotube differentiation” and the “ability to improve the myotube fusion in healthy muscle myoblasts” value was “ability to improve the myotube fusion”. Moreover, the “effect on myotubes (phenotypic change)” value in series [1] (setting [5]) was “promising effect in enhancing myotube cells”. In series [3] (setting [8]), the Cyc1 expression entry is listed as “notable upregulation”, the MyH3 expression entry is recorded as “notable upregulation” and the MyoG expression result is “notable upregulation”. Also, in series [3] (setting [9]), the Cyc1 expression entry is on record as “notable upregulation”, the MyH3 expression result is on record as “notable upregulation” and the MyoG expression result was “notable upregulation”. For the same molecule, in series [3] (setting [6]), the “expression level of CYC1” value was “significantly increase”, the “expression level of MyH3” value is recorded as “significantly increase” and the “expression level of MyoG” value is listed as “significantly increase”.

With `CCCCCCCCCC(=O)NC(CN1CCOCC1)C(O)c1ccccc1` (racemic) [DL-PDMP], the “differentiation of myoblasts to myotubes” value with C2C12 myoblasts (setting [4]) was “highly differentiated”. In addition, the “effect on myotubes (phenotypic change)” value in series [1] (setting [5]) was “Only treatment with withaferin-A improved the myotubes”.

In the case of `Nc1[nH]nc2nnc(-c3c(-c4ccccc4)nn4ccccc34)cc12` [FR-180204], in the series with C2C12 myoblasts, the “ability to facilitate myotube differentiation without the presence of ceramide” value is on record as “exhibited the ability to facilitate myotube differentiation” and the “ability to improve the myotube fusion in healthy muscle myoblasts” value is recorded as “ability to improve the myotube fusion”. Moreover, the “effect on myotubes (phenotypic change)” value in series [1] (setting [5]) was “promising effect in enhancing myotube cells”. Also, in series [3] (setting [9]), the Cyc1 expression result is on record as “significantly increased”, the MyH3 expression entry is on record as “significantly increased” and the MyoG expression entry is listed as “significantly increased”. Besides, in series [3] (setting [6]), the “expression level of CYC1” value was “significantly increase”, the “expression level of MyH3” value is “significantly increase” and the “expression level of MyoG” value was “significantly increase”.

`Cc1c(C)c2c(c(C)c1O)CCC(C)(COc1ccc(CC3SC(=O)NC3=O)cc1)O2` (centres unmarked) [troglitazone]: the MNTC at 24 h in series [2] was 500 nM.

On to `O=C1c2c(O)ccc(O)c2C(=O)c2c(NCCNCCO)ccc(NCCNCCO)c21` [Mitoxantrone], for which the “differentiation of myoblasts to myotubes” value in the series on C2C12 myoblasts (setting [4]) was “less differentiated”.

With `CN(C)CCOC(c1ccc(Cl)cc1)c1ccccn1` (centres unmarked) [carbinoxamine], the “effect on myotubes (phenotypic change)” value in series [1] (setting [5]) is recorded as “promising effect in enhancing myotube cells”. Also, in series [3] (setting [10]), the CYC1 expression result is listed as “large improvement”, the MyH3 expression entry is “increase” and the MyoG expression result is on record as “increase”. For the same molecule, in series [3] (setting [6]), the “expression level of CYC1” value is recorded as “increase”, the “expression level of MyH3” value is given as “increase” and the “expression level of MyoG” value is “increase”.
